Results reported in patent US11369565B2, “Amino-pyrimidine skeletal muscle modulators” (Cytokinetics, Inc., priority 2010, dated 2022).

Tested on: rabbit skeletal myofibrils (approximately 90% fast fibers)
Assay: Activation of fast skeletal myofibrils (PUMA coupled-enzyme ATPase assay at pCa25)
Assay type: biochemical
Conditions: concentration at which the compound increased the enzymatic activity by 40%; calcium at pCa25; PM12 buffer pH 6.8
In short: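 Detergent-washed rabbit psoas myofibrils tested at calcium giving 25% of maximal rate (pCa25). ATPase activity tracked by pyruvate kinase/lactate dehydrogenase coupling, NADH oxidation read as absorbance at 340 nm, in PM12 buffer (12 mM Pipes, 2 mM MgCl2, 1 mM DTT, pH 6.8).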

Mean AC1.4 | SMILES
D (D=>20 uM) | NC(=O)c1ccc(=O)n(-c2cnc(NC[C@]3(c4ncccc4F)C[C@H](F)C3)nc2)c1 [1-[2-({[3-fluoro-1-(3-fluoro(2-pyridyl))cyclobutyl]methyl)amino)pyrimidin-5-yl]-6-oxohydropyridine-3-carboxamide]
D (D=>20 uM) | CC(C)(Nc1ncc(-c2nc(CN)cs2)cn1)c1ncccc1F [{5-[4-(aminomethyl)(1,3-thiazol-2-yl)]pyrimidin-2-yl}[1-(3-fluoro(2-pyridyl))-isopropyl]amine]
A (A=<1 uM) | O=C(NC1CC(O)C1)c1ccc(F)c(-c2cnc(NC[C@]3(c4ncccc4F)C[C@H](F)C3)nc2)c1 (stereo partly shown) [{4-fluoro-3-[2-({[3-fiuoro-1-(3-fluoro(2-pyridyl))cyclobutyl]methyl}amino)pyrimidin-5-yl]phenyl}-N-(3-hydroxycyclobutyl)carboxamide]
A (A=<1 uM) | NC(=O)c1n[nH]c2cc(F)c(-c3cnc(NC4(c5ncccc5F)CCC4)nc3)cc12 [6-fluoro-5-(2-{[(3-fluoro(2-pyridyl))cyclobutyl]amino}pyrimidin-5-yl)-1H-indazole-3-carboxamide]
D (D=>20 uM) | CC(C)[C@H](Nc1ncc(-c2ncc(C#N)s2)cn1)c1ncccc1Cl [2-(2-{[(1S)-1-(3-chloro(2-pyridyl))-2-methylpropyl]amino}pyrimidin-5-yl)-1,3-thiazole-5-carbonitrile]
D (D=>20 uM) | CC(C)(CNc1ncc(C(=O)NC2(C(=O)O)CC2)cn1)c1ccc(F)cc1 [1-[(2-{[2-(4-fluorophenyl)-2-methylpropyl]amino}pyrimidin-5-yl)carbonylamino] cyclopropanecarboxylic acid]
B (B=1-10 uM) | CNC(=O)c1cccc(-c2cnc(NCC3(c4ncccc4F)CCC3)nc2)c1 [{3-[2-({[(3-fluoro(2-pyridyl))cyclobutyl]methyl)amino)pyrimidin-5-yl]phenyl}-N-methylcarboxamide]
B (B=1-10 uM) | O=C(Nc1cnc(NCC2(c3ncccc3F)CCC2)nc1)Nc1nccs1 [{[2-({[(3-fluoro(2-pyridyl))cyclobutyl]methyl}amino)pyrimidin-5-yl]amino}-N-(1,3-thiazol-2-yl)carboxamide]
B (B=1-10 uM) | N#Cc1n[nH]c2ccc(-c3cnc(NC4(c5ncccc5F)CCC4)nc3)cc12 [5-(2-{[(3-fluoro-2-pyridyl)cyclobutyl]amino}pyrimidin-5-yl)-1H-indazole-3-carbonitrile]
D (D=>20 uM) | CN1CCc2nc(NCC(C)(C)c3ccc(F)cc3)ncc2C1 [[2-(4-fluorophenyl)-2-methylpropyl](6-methyl (5,6,7,8-tetrahydropyridino [4,3-d]pyrimidin-2-yl))amine]
D (D=>20 uM) | COC(=O)c1cnc(NCC(C)(C)c2ccc(F)cc2)nc1 [methyl 2-{[2-(4-fluorophenyl)-2-methylpropyl]amino}pyrimidine-5-carboxylate]
B (B=1-10 uM) | CC(C)(Nc1ncc(-c2ccc(C(N)=O)s2)cn1)c1ncccc1Cl [5-(2-{[1-(3-chloro(2-pyridyl))-isopropyl]amino}pyrimidin-5-yl)thiophene-2-carboxamide]
D (D=>20 uM) | COc1ccc(-c2cnc(NC[C@]3(c4ncccc4F)C[C@H](F)C3)nc2)cn1 [{[3-fluoro-1-(3-fluoro(2-pyridyl))cyclobutyl]methyl} [5-(6-methoxy(3-pyridyl))pyrimidin-2-yl]amine]
D (D=>20 uM) | CS(=O)(=O)NCCNC(=O)c1cnc(NCC2(c3ncccc3F)CCC2)nc1 [[2-({[(3-fluoro(2-pyridyl))cyclobutyl]methyl}amino)pyrimidin-5-yl]-N-[(methylsulfonyl)amino]ethyl} carboxamide]
D (D=>20 uM) | O=C(NCCO)c1cnc(NCC2(c3ncccc3F)CCC2)nc1 [[2-({[(3-fluoro(2-pyridyl))cyclobutyl]methyl}amino)pyrimdin-5-yl]-N-(2-hydroxyethyl)carboxamide]
D (D=>20 uM) | CC(=O)NCc1cnn(-c2cnc(NC(C)(C)c3ncccc3Cl)nc2)c1 [N-{[1-(2-{[1-(3-chloro(2-pyridyl))-isopropyl]amino}pyrimidin-5-yl)pyrazol-4-yl)]methyl}acetamide]
A (A=<1 uM) | NC(=O)c1cccc(-c2cnc(NC[C@]3(c4ncccc4F)C[C@H](F)C3)nc2)c1O [3-[2-({[3-fluoro-1-(3-fluoro(2-pyridyl))cyclobutyl]methyl)amino)pyrimidin-5-yl]-2-hydroxybenzamide]
D (D=>20 uM) | N#Cc1cnc(NC2(c3ncccc3F)CCC2)nc1 [2-{[(3-fluoro-2-pyridyl)cyclobutyl]amino} pyrimidine-5-carbonitrile]
A (A=<1 uM) | CC(C)(Nc1ncc(-c2ccc3[nH]nc(N)c3c2)cn1)c1ncccc1F [[5-(3-amino(1H-indazol-5-yl))pyrimidin-2-yl][1-(3-fluoro(2-pyridyl))-isopropyl]amine]
C (C=10-20 uM) | O=C(Nc1ccccc1)c1cnc(NCC2(c3ncccc3F)CCC2)nc1 [[2-({[(3-fluoro(2-pyridyl))cyclobutyl]methyl}amino)pyrimidin-5-yl]-N-benzamide]

Mean AC1.4 | SMILES
B (B=1-10 uM) | NC(=O)c1cccc(-c2cnc(NCC3(c4ccccn4)CCC3)nc2)c1 [3-(2-{[(2 pyridylcyclobutyl)methyl]amino}pyrimidin-5-yl)benzamide]
B (B=1-10 uM) | Nc1cnc(-c2cnc(NC[C@]3(c4ncccc4F)C[C@H](F)C3)nc2)cn1 [[5-(5-aminopyrazin-2-yl)pyrimidin-2-yl]{[3-fluoro-1-(3-fluoro(2-pyridyl))cyclobutyl]methyl}amine]
B (B=1-10 uM) | CC(=O)Nc1n[nH]c2ccc(-c3cnc(NC(C)(C)c4ncccc4Cl)nc3)cc12 [N-[5-(2-{[1-(3-chloro(2-pyridyl))-isopropyl]amina}pyrimidin-5-yl)-1H-indazol-3-yl]acetamide]
D (D=>20 uM) | NC(=O)c1cnc(NC2(c3ccc(F)cc3)CCC2)nc1 [2-{[(4-fluorophenyl)cyclobutyl]amino} pyrimidine-5-carboxamide]
D (D=>20 uM) | NC(=O)c1cnc(NC2(c3ncccc3F)CCC2)nc1 [2-{[(3-fluoro-2-pyridyl)cyclobutyl]amino}pyrimidine-5-carboxamide]
D (D=>20 uM) | CC(C)(Nc1ncc(-c2ncc(CNC(=O)C3(N)CC3)s2)cn1)c1ncccc1F [(aminocyclopropyl)-N-{[2-(2-{[1-(3-fluoro(2-pyridyl))-isopropyl]amino}pyrimidin-5-yl)(1,3-thiazol-5-yl)]methyl)carboxamide]
A (A=<1 uM) | NC(=O)c1ccc(F)c(-c2cnc(NCC3(c4ncccc4F)CCC3)nc2)c1 [4-fluoro-3-[2-({[(3-fluoro(2-pyridyl))cyclobutyl]methyl}amino)pyrimidin-5-yl]benzamide]
D (D=>20 uM) | COC(=O)c1ccn(-c2cnc(NC[C@]3(c4ncccc4F)C[C@H](F)C3)nc2)c1 [methyl 1-[2-({[3-fluoro-1-(3-fluoro(2-pyridyl))cyclobutyl]methyl}amino)pyrimidin-5-yl]pyrrole-3-carboxylate]
B (B=1-10 uM) | NC(=O)c1cc(-c2cnc(NCC3(c4ncccc4F)CCC3)nc2)ccn1 [4-[2-({[(3-fluoro-2-pyridyl)cyclobutyl]methyl}amino)pyrimidin-5-yl]pyridine-2-carboxamide]
D (D=>20 uM) | O=c1[nH]cc(-c2cnc(NC[C@]3(c4ncccc4F)C[C@H](F)C3)nc2)c(=O)[nH]1 [5-[2-({[3-fluoro-1-(3-fluoro(2-pyridyl))cyclobutyl]methyl}amino)pyrimidin-5-yl]-1,3-dihydropyrimidine-2,4-dione]
D (D=>20 uM) | CC(C)(CNc1ncc(Br)cn1)c1ccc(F)cc1 [5-Bromo-N-(2-(4-fluorophenyl)-2-methylpropyl)pyrimidin-2-amine]
C (C=10-20 uM) | NC(=O)Cc1ccccc1-c1cnc(NC[C@]2(c3ncccc3F)C[C@H](F)C2)nc1 [2-{2-[2-({[3-fluoro-1-(3-fluoro(2-pyridyl))cyclobutyl)]methyl}amino)pyrimidin-5-yl]phenyl)acetamide]
D (D=>20 uM) | Oc1ncc(-c2cnc(N3CC4(c5ncccc5F)CC3C4)nc2)cn1 [5-{2-[4-(3-fluoro-2-pyridyl)-2-azabicyclo[2.1.1]hex-2-yl]pyrimidin-5-yl}pyrimidin-2-ol]
C (C=10-20 uM) | Fc1ccc(C2(Nc3nccc(C(F)(F)F)n3)CCC2)cc1 [[(4-fluorophenyl)cyclobutyl][4-(trifluoromethyl)pyrimidin-2-yl]amine]
A (A=<1 uM) | CNC(=O)c1ccc(O)c(-c2cnc(NC[C@]3(c4ncccc4F)C[C@H](F)C3)nc2)c1 [{3-[2-({[3-fluoro-1-(3-fluoro(2-pyridyl))cyclobutyl]methyl}amino)pyrimidin-5-yl]-4-hydroxyphenyl}-N-methylcarboxamide]
D (D=>20 uM) | COc1ncc(-c2cnc(NC[C@]3(c4ncccc4F)C[C@H](F)C3)nc2)c(OC)n1 [[5-(2,4-dimethoxypyrimidin-5-yl)pyrimidin-2-yl]{[3-fluoro-1-(3-fluoro(2-pyridyl))cyclobutyl]methyl}amine]
A (A=<1 uM) | NC(=O)c1ccc(F)c(-c2cnc(NCC3(c4ncccc4Cl)CCC3)nc2)c1 [3-[2-({[(3-chloro(2-pyridyl))cyclobutyl]methyl}amino)pyrimidin-5-yl]-4-fluorobenzamide]
D (D=>20 uM) | CC(C)(Nc1ncc(C(N)=O)cn1)c1ncccc1Cl [2-{[1-(3-chloro(2-pyridyl))-isopropyl]amino}pyrimidine-5-carboxamide]
B (B=1-10 uM) | CC(C)(Nc1ncc(-c2cn[nH]c2)cn1)c1ncccc1Cl [[1-(3-chloro(2-pyridyl))-isopropyl](5-pyrazol-4-ylpyrimidin-2-yl)amine]
D (D=>20 uM) | CSc1ccc(C(C)(C)Nc2ncc(-c3cccc(C#N)c3)cn2)cc1 [3-(2-{[1-methyl-1-(4-methylthiophenyl)ethyl]amino}pyrimidin-5-yl)benzenecarbonitrile]
